Measured values as given in patent US6143780A, “N-arylmethylthioanilide compounds useful for the inhibition of the replication of HIV” (Uniroyal Chemical Company, Inc., priority 1999, dated 2000).
Converted amounts (≈) assume the structure as drawn. “And” between values parts separate entries of the source, which are not always exact repeats. Identical values can stand only once. Like-named read-outs stand apart in the source and are kept apart here.

Experiments:
Assay type in all cases: cell-based
138-Lys = test: inhibition of syncytium formation in CEM cells, HIV-1 RT mutant 138-Lys; settings: Human immunodeficiency virus 1, CCRF-CEM, 96 h, read-out: EC50 138-Lys
Excerpt: (§1) CEM cells were obtained from the American Tissue Cell Culture Collection (Rockville, Md.) . HIV-1 (IIIB) was originally obtained from the culture supernatant of persistently HIV-1-infected H9 cells and was provided by R. C. Gallo and M. Popovic (National Cancer Institute, National Institutes of Health, Bethesda, Md.).
(§2) The selection and characterization of the HIV-1 RT mutant strains were done as follows: HIV-1/100-Ile ("100-Ile") was selected for resistance against TIBO R82150 as described in Balzarini et al, Virology 192: 246-253 (1993); HIV-1/103-Asn ("103-Asn") was selected for resistance against TIBO R82913 as described in Balzarini et al, Virology 192: 246-253 (1993); HIV-1/106-Ala ("106-Ala") was selected for resistance against nevirapine as described in Balzarini et al, J. Virol. 67: 5353-5359 (1993); HIV-1/Lys-138 ("Lys-138") was selected for resistance against TSAO-m^3T as described in Balzarini et al, Virology 192: 246-253 (1993) and Balzarini et al, Proc. Nat. Acad. Sci. USA 90: 6952-6956 (1993); HIV-1/181-Cys ("181-Cys") was selected for resistance against pyridinone L-697,661 as described in Balzarini et al, Virology 192: 246-253 (1993); and HIV-1/188-His ("188-His") was selected for resistance against HEPT as described in Balzarini et al, Mol. Pharmocol. 44: 694-701 (1993). 188-His was then further converted to HIV-1/188-Leu ("188-Leu") upon further passage in cell culture in the absence of the HEPT. HIV-1/101-Glu ("101-Glu") and HIV-1/190-Glu ("190-Glu") were selected for resistance against the thiocarboxanilide derivative designated as UC38 as described in Balzarini et al, Antiviral Research 27: 219-236 (1995). HIV-1/184-Ile ("184-Ile") was selected for resistance against the combination of 3TC and TSAO-m^3 T as described in Balzarini et al, Molecular Pharm. 49: 882-890 (1996). HIV-1/184-Val ("184-Val") was selected for resistance against 3TC as described in Balzarini et al, Molecular Pharm. 49: 882-890 (1996).
(§3) CEM cells were suspended at ≈300,000 cells per ml of culture medium and infected with approximately 100 CCID50 (CCID50 being the 50% cell culture infective dose) of HIV-1(IIIB) (designated as "WT" in Table 3) or one of the HIV-1 RT mutant strains described above. Then 100 μl of the infected cell suspensions was added to 200 μl microtiter plate wells containing 100 μl of appropriate serial (5-fold) dilutions of the test compounds. The inhibitiory effect of the test compounds on HIV-1 induced syncytium formation in CEM cells was examined microscopically on day 4 post infection. The 50% effective concentration (EC50) was defined as the test compound concentration that inhibits syncytium formation in the HIV-1-infected cell cultures by 50%.

HIV-1/184-Ile = test: inhibition of syncytium formation in CEM cells, HIV-1 RT mutant 184-Ile; settings: Human immunodeficiency virus 1, CCRF-CEM, 96 h, read-out: EC50 184-IIe
Excerpt: as §1, §2, §3

HIV-1/100-Ile = test: inhibition of syncytium formation in CEM cells, HIV-1 RT mutant 100-Ile; settings: Human immunodeficiency virus 1, CCRF-CEM, 96 h, read-out: EC50 100-Ile
Excerpt: as §1, §2, §3

HIV-1 (IIIB) = test: inhibition of HIV-1(IIIB) (WT) induced syncytium formation in CEM cells
Excerpt: as §1, §3

HIV-1/184-Val = test: inhibition of syncytium formation in CEM cells, HIV-1 RT mutant 184-Val; settings: Human immunodeficiency virus 1, CCRF-CEM, 96 h, read-out: EC50 184-Val
Excerpt: as §1, §2, §3

HIV-1/188-His = test: inhibition of syncytium formation in CEM cells, HIV-1 RT mutant 188-His; settings: Human immunodeficiency virus 1, CCRF-CEM, 96 h, read-out: EC50 188-His
Excerpt: as §1, §2, §3

HIV-1/190-Glu = test: inhibition of syncytium formation in CEM cells, HIV-1 RT mutant 190-Glu; settings: Human immunodeficiency virus 1, CCRF-CEM, 96 h, read-out: EC50 190-Glu
Excerpt: as §1, §2, §3

HIV-1/181-Cys = test: inhibition of syncytium formation in CEM cells, HIV-1 RT mutant 181-Cys; settings: Human immunodeficiency virus 1, CCRF-CEM, 96 h, read-out: EC50 181-Cys
Excerpt: as §1, §2, §3

HIV-1/101-Glu = test: inhibition of syncytium formation in CEM cells, HIV-1 RT mutant 101-Glu; settings: Human immunodeficiency virus 1, CCRF-CEM, 96 h, read-out: EC50 101-Glu
Excerpt: as §1, §2, §3

103-Ala = test: inhibition of syncytium formation in CEM cells, HIV-1 RT mutant 103-Ala; settings: Human immunodeficiency virus 1, CCRF-CEM, 96 h, read-out: EC50 103-Ala
HIV-1/188-Leu = test: inhibition of syncytium formation in CEM cells, HIV-1 RT mutant 188-Leu; settings: Human immunodeficiency virus 1, CCRF-CEM, 96 h, read-out: EC50 188-Leu
Excerpt: as §1, §2, §3

HIV-1/106-Ala = test: inhibition of syncytium formation in CEM cells, HIV-1 RT mutant 106-Ala; settings: Human immunodeficiency virus 1, CCRF-CEM, 96 h, read-out: EC50 106-Ala
Excerpt: as §1, §2, §3

[1] = Human immunodeficiency virus 1, IIIB, CCRF-CEM, 96 h, Table 2, day 4 post infection, replicate values, read-out: EC50, Activity Against HIV-1 (IIIB)
[2] = Human immunodeficiency virus 1, IIIB, CCRF-CEM, 96 h, Table 3, HIV-1(IIIB), day 4 post infection, read-out: EC50 WT
[3] = Table 2, day 4 post infection, replicate values, read-out: EC50, Activity Against HIV-1 (IIIB)

Compound	EC50 (138-Lys)	EC50 (HIV-1/184-Ile)	EC50 (HIV-1/100-Ile)	EC50 (HIV-1 (IIIB); [1])	EC50 (HIV-1 (IIIB); [2])	EC50 (HIV-1 (IIIB); [3])	EC50 (HIV-1/184-Val)	EC50 (HIV-1/188-His)	EC50 (HIV-1/190-Glu)	EC50 (HIV-1/181-Cys)	EC50 (HIV-1/101-Glu)	EC50 (103-Ala)	EC50 (HIV-1/188-Leu)	EC50 (HIV-1/106-Ala)
Cc1occc1C(=S)Nc1ccc(Cl)c(COc2ccccc2Cl)c1 [Compound 6, N-3-((2-chlorophenoxy)methyl)-4-chlorophenyl-2-methyl-3-furancarbothioamide]	0.025 µg/mL	0.047 µg/mL	0.23 µg/mL	58.6 nM	0.0067 µg/mL	104 nM	0.018 µg/mL	0.053 µg/mL	> 2 µg/mL	0.09 µg/mL	0.11 µg/mL	1.2 µg/mL (≈ 3.06 µM)		
Cc1occc1C(=S)Nc1ccc(Cl)c(COc2cccc(Cl)c2)c1 [Compound 7]	0.33 µg/mL	0.4 µg/mL	0.65 µg/mL		0.09 µg/mL	68.2 nM and 52.5 nM and 432 nM	0.1 µg/mL	0.95 µg/mL	≥ 10 µg/mL	0.44 µg/mL	2 µg/mL	≥ 2 µg/mL		
Cc1ccccc1OCc1cc(NC(=S)c2ccoc2C)ccc1Cl [Compound 8]	0.19 µg/mL	0.065 µg/mL	0.33 µg/mL	107 nM	0.022 µg/mL		0.02 µg/mL	0.5 µg/mL	≥ 2 µg/mL	0.95 µg/mL	1.5 µg/mL	2 µg/mL (≈ 5.38 µM)	0.7 µg/mL	1 µg/mL
Cc1occc1C(=S)Nc1ccc(Cl)c(COc2ccc(F)cc2)c1 [Compound 11]	0.7 µg/mL	0.16 µg/mL	0.95 µg/mL		0.065 µg/mL	85.1 nM and 161 nM and 276 nM	0.045 µg/mL	> 2 µg/mL	≥ 2 µg/mL	0.14 µg/mL	≥ 2 µg/mL	> 2 µg/mL	≥ 2 µg/mL	1.1 µg/mL
CC(=O)OCc1ccccc1OCc1cc(NC(=S)c2ccoc2C)ccc1Cl [Compound 15]	> 2 µg/mL	1.2 µg/mL	> 2 µg/mL		0.49 µg/mL		0.5 µg/mL	> 2 µg/mL	≥ 2 µg/mL	> 2 µg/mL	> 2 µg/mL	> 2 µg/mL	> 2 µg/mL	> 2 µg/mL
Cc1occc1C(=S)Nc1ccc(Cl)c(COc2c(F)cccc2F)c1 [Compound 16]	0.018 µg/mL	0.011 µg/mL	0.08 µg/mL	28.6 nM	0.0031 µg/mL	39.2 nM	0.0036 µg/mL	0.52 µg/mL	> 2 µg/mL	0.03 µg/mL	0.069 µg/mL	0.6 µg/mL (≈ 1.52 µM)	0.95 µg/mL	0.03 µg/mL
Cc1occc1C(=S)Nc1ccc(Cl)c(COc2ccccc2F)c1 [Compound 18]	0.53 µg/mL	0.032 µg/mL	0.077 µg/mL	117 nM	0.0053 µg/mL	111 nM	0.008 µg/mL	1.73 µg/mL	> 2 µg/mL	0.1 µg/mL	0.24 µg/mL	> 2 µg/mL	> 2 µg/mL	1.1 µg/mL
Cc1occc1C(=S)Nc1ccc(Cl)c(COc2ccccc2[N+](=O)[O-])c1 [Compound 19]	0.0075 µg/mL	0.0045 µg/mL	0.08 µg/mL	27.1 nM	0.0023 µg/mL	39.3 nM	0.0041 µg/mL	0.12 µg/mL	> 2 µg/mL	0.13 µg/mL	0.17 µg/mL	0.52 µg/mL (≈ 1.29 µM)	1.35 µg/mL	0.13 µg/mL
COc1ccccc1OCc1cc(NC(=S)c2ccoc2C)ccc1Cl [Compound 22]	0.075 µg/mL	0.025 µg/mL	0.4 µg/mL	160 nM	0.011 µg/mL	209 nM	0.018 µg/mL	0.85 µg/mL	> 2 µg/mL	0.41 µg/mL	0.75 µg/mL	2.73 µg/mL (≈ 7.04 µM)	> 2 µg/mL	1 µg/mL
Cc1occc1C(=S)Nc1ccc(Cl)c(COc2ccccc2CO)c1 [Compound 25]	> 2 µg/mL	1 µg/mL	> 2 µg/mL		0.55 µg/mL	3140 nM and 1090 nM and 1490 nM and 1150 nM and 1000 nM	0.25 µg/mL	> 2 µg/mL	> 2 µg/mL	> 2 µg/mL	> 2 µg/mL	> 2 µg/mL	> 2 µg/mL	> 2 µg/mL
Cc1occc1C(=S)Nc1ccc(Cl)c(COc2cccc([N+](=O)[O-])c2)c1 [Compound 27]	0.23 µg/mL	0.11 µg/mL	0.7 µg/mL		0.03 µg/mL	121 nM and 340 nM	0.4 µg/mL	> 2 µg/mL	> 2 µg/mL	0.5 µg/mL	0.55 µg/mL	> 2 µg/mL	> 2 µg/mL	1.57 µg/mL
Cc1occc1C(=S)Nc1ccc(Cl)c(COc2ccccc2C#N)c1 [Compound 30]	0.042 µg/mL	0.03 µg/mL	0.33 µg/mL	63.5 nM	0.006 µg/mL	68.7 nM and 103 nM	0.021 µg/mL	0.35 µg/mL	> 2 µg/mL	0.65 µg/mL	0.63 µg/mL	> 2 µg/mL	0.85 µg/mL	0.7 µg/mL
COc1cccc(F)c1OCc1cc(NC(=S)c2ccoc2C)ccc1Cl [Compound 34]	0.02 µg/mL	0.0087 µg/mL	0.16 µg/mL		0.0022 µg/mL	5.65 nM and 17.4 nM	0.005 µg/mL	0.5 µg/mL	> 2 µg/mL	0.1 µg/mL	0.12 µg/mL	0.85 µg/mL (≈ 2.09 µM)	0.53 µg/mL	0.1 µg/mL
Cc1ccc(Cl)c(OCc2cc(NC(=S)c3ccoc3C)ccc2Cl)c1 [Compound 37]	0.33 µg/mL	0.14 µg/mL	2.33 µg/mL		0.025 µg/mL	19.2 nM and 76.6 nM	0.09 µg/mL	0.33 µg/mL	> 2 µg/mL	> 2 µg/mL	1.4 µg/mL	> 2 µg/mL	0.62 µg/mL	> 2 µg/mL
Cc1occc1C(=S)Nc1ccc(Cl)c(COc2ccccc2Br)c1 [Compound 40]	0.09 µg/mL	0.04 µg/mL	1.73 µg/mL		0.02 µg/mL	35.3 nM and 46 nM and 16.8 nM	0.018 µg/mL	0.4 µg/mL	> 2 µg/mL	0.75 µg/mL	0.4 µg/mL	> 2 µg/mL	0.7 µg/mL	0.85 µg/mL
